Laboratory results published in patent US20050256064A1, “9-Desoxoerythromycin compounds as prokinetic agents” (priority 2003, published 2005).
In brackets after ≈: the same amount, converted by molar mass. Like-named read-outs stand apart in the source and are kept apart here. Values belong to the compound of their own block, whether it stands above or below them.

Key:
human motilin receptor [1] = biological target: T1, human motilin receptor (Homo sapiens, UniProt O43193); details: HEK293 cells expressing human motilin receptor; as reported in Anal. Biochemistry; read-out: Motilin Agonist EC50; cited from earlier work
T1 construct: expressed in transfected cells; host or cells: HEK293

hERG potassium channel = hERG potassium channel (Homo sapiens, UniProt Q12809); assay: in vitro; details: human
Text: (§1) Stanat et al., Mol. Cellular Biochem., 254, 1-7 (2003), “Characterization of the Inhibitory Effects of Erythromycin and Clarithromycin on the HERG Potassium Channel”.

rabbit duodenum tissue = assay: Motilin agonist potency (tissue based assay), rabbit duodenum contractility; details: Oryctolagus cuniculus, rabbit duodenum contraction
Experimental: The motilin agonist potency of compound I-b also was evaluated using a tissue based assay, using rabbit duodenum tissue-based contractility assay, generally following the procedure of Depoortere et al., J. Gastrointestinal Motility, 1, 150-159 (1989), the disclosure of which is incorporated herein by reference. Briefly, this method measures the ability of a compound to induce contractions in rabbit duodenal tissue, a tissue that responds to motilin.
Strips of rabbit duodenum were tested and qualified for use in the assay by as follows. Segments of rabbit duodenum, 20-30 cm distal to the pylorus were split longitudinally. The mucosa was removed and 2×2×15 mm strips of longitudinal smooth muscle were sliced from the segments. The strips were bathed in oxygenated Krebs solution at 37° C., with 1.5 g of tension, and contractions measured auxotonically. […] Qualified strips were mounted on the test apparatus.
Compound I-b was dissolved in dimethylsulfoxide (DMSO) to a final concentration of 10 mM. […]
The EC50 (concentration producing a half-maximal effect) was calculated as follows. The basal tension was subtracted from the compound-induced tension for each reading. […] Both R and Rmax are expressed as a fraction of the 1 μM carbachol contraction and range from 0 to 1. […]

human motilin receptor [2] = biological target: T1, human motilin receptor; assay: Motilin agonist potency (cell based assay); details: HEK293 cells expressing human motilin receptor
Experimental: The motilin agonist potency of compound I-b was evaluated in a cell based assay, according to the procedure disclosed in Carreras et al., Anal. Biochemistry, 300, 146-151 (2002), the disclosure of which is incorporated herein by reference. Briefly, in this method HEK293 cells are transformed with a synthetic gene for the human motilin receptor. Expression of the synthetic gene produces the human motilin receptor; then the activation of the receptor by the binding of a test compound thereto is measured.

S. pneumoniae = assay: Antibacterial activity, MIC by serial dilutions on 96-well microtiter plates; format: cell-based; details: for MIC: Streptococcus pneumoniae
cytochrome P450 3A4 = cytochrome P450 3A4 (Homo sapiens, UniProt P08684); assay: Cytochrome P450 inhibition; format: in vitro ADME
Experimental: The inhibitory effect of compound I-b on cytochrome P450 3A4, the most abundant of the cytrochrome P450 enzymes responsible for the metabolism of many drugs, was determined, using a method based on Stresser et al., Drug Metabolism Disposition, 30 (7), 845-52. A strong inhibitory effect is undesirable, as indicative of a high probability of interference with other drugs.

rabbit duodenum strips = assay: Chronic dosing tachyphylaxis model; details: for % of the initial contraction after the fourth dose: dosed at EC90 at 0, 30, 60 and 90 min, response at 0 min set as 100%
Experimental: Rabbit duodenum strips were qualified as described above and dosed with test compound at its EC90 concentration. The contraction was recorded. When peak contractile force was reached, carbachol (1 μM) was added, and any further contraction was recorded. The resulting contraction is expressed as a fraction of the 1 μM carbachol contraction. The test compound and carbachol were washed away by changing the bath solution twice. The procedure was repeated at 30, 60, and 90 min following the initial dosing.

[3] = biological target: hERG (human ether-a-go-go related gene) potassium channel (Homo sapiens, UniProt Q12809); assay: in vitro
Text: as §1

hERG potassium channel, sequence (Q12809 whole entry): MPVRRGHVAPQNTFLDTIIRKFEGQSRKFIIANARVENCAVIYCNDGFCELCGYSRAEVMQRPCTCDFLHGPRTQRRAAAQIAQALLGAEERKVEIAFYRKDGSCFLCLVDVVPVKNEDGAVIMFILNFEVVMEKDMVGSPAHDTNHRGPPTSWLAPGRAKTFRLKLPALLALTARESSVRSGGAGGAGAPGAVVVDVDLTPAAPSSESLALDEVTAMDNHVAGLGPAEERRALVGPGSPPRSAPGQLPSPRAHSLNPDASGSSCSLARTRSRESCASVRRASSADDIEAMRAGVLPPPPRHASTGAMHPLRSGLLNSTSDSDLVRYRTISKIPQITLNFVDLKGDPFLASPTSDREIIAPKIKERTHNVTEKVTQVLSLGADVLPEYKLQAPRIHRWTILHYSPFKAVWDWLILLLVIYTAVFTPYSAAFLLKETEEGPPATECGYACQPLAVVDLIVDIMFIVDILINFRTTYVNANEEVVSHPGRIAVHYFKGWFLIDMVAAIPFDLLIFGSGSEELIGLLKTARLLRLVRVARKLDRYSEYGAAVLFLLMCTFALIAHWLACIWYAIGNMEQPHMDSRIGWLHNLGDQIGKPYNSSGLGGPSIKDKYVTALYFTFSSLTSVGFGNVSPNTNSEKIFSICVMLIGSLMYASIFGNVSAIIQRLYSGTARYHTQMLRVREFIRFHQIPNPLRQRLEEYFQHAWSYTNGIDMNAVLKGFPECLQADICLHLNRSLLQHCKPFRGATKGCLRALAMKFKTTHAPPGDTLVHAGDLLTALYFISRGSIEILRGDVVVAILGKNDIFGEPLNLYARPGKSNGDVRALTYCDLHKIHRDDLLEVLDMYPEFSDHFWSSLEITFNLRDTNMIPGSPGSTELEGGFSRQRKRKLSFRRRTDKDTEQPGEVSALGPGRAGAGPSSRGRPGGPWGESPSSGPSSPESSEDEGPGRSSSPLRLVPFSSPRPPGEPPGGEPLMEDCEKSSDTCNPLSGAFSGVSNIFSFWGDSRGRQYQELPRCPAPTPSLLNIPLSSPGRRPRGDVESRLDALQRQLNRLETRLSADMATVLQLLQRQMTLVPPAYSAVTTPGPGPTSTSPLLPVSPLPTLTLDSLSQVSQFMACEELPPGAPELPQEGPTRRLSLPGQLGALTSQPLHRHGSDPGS
T1 sequence (O43193 whole entry): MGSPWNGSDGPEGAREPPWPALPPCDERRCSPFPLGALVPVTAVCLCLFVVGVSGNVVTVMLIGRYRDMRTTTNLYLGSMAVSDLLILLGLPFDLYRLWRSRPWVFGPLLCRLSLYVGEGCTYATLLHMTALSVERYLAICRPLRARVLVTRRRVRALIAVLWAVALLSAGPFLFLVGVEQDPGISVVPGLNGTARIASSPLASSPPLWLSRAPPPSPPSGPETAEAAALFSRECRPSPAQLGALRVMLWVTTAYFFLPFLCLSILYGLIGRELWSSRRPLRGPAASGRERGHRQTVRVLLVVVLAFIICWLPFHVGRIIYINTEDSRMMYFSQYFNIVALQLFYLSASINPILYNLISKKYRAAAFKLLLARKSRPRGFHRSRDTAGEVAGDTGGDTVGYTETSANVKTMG
hERG (human ether-a-go-go related gene) potassium channel, sequence (Q12809 whole entry): as the sequence (Q12809 whole entry) above
cytochrome P450 3A4, sequence (P08684 whole entry): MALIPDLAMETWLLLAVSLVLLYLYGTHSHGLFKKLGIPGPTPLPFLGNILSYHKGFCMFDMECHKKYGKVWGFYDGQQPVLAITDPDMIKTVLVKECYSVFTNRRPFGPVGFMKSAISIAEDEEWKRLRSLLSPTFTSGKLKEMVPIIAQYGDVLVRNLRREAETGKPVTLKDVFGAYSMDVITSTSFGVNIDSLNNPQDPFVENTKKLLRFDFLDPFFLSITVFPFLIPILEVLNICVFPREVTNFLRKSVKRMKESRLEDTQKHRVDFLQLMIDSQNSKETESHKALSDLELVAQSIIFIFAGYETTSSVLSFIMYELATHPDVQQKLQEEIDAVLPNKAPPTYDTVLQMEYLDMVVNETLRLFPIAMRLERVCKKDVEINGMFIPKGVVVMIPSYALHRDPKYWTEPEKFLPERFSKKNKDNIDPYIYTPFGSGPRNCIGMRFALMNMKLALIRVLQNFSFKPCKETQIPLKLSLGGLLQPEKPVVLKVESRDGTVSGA

SMILES: CC[C@H]1OC(=O)[C@H](C)[C@@H](OC2C[C@@](C)(OC)C[C@H](C)O2)[C@H](C)[C@@H](OC2O[C@H](C)C[C@H](N(C)CC)[C@H]2O)[C@@]2(C)CC(C)=C(O2)[C@H](C)[C@@H](O)[C@H]1C (some centres unmarked) [ABT 229]
EC50 (human motilin receptor [1]): 40 nM

EC90 (rabbit duodenum tissue; approximated as ten times EC50 and verified, read-out: EC90 (concentration producing 90% of the maximal effect)): 1800 nM | EC50 (human motilin receptor [2]): 1200 nM | MIC (S. pneumoniae; ATCC6301, S. pneumoniae strain ATCC 6301, read-out: Minimum Inhibitory Concentration (MIC)): 50 µg/mL (≈ 66.8 µM) | MIC (S. pneumoniae; ATCC49619, S. pneumoniae strain ATCC 49619, read-out: Minimum Inhibitory Concentration (MIC)): 50 µg/mL (≈ 66.8 µM) | MIC (S. pneumoniae; ATCC700671, S. pneumoniae strain ATCC 700671, read-out: Minimum Inhibitory Concentration (MIC)): > 200 µg/mL | Ki (cytochrome P450 3A4): 9900 nM
SMILES: CC[C@H]1OC(=O)[C@H](C)[C@@H](O[C@H]2C[C@@](C)(OC)[C@@H](O)[C@H](C)O2)[C@H](C)[C@@H](O[C@@H]2O[C@H](C)C[C@H](N(C)C(C)C)[C@H]2O)C(C)(O)C[C@@H](C)C[C@H](C)[C@@H](O)[C@]1(C)O (some centres unmarked) [Compound I-b, N-Desmethyl-N-isopropyl-9-desoxoerythromycin A]
inhibition at 10 µM (hERG potassium channel): 74% | inhibition at 30 µM (hERG potassium channel): 95% | EC50 (rabbit duodenum tissue; normalized to 1 μM carbachol, read-out: EC50 (concentration producing a half-maximal effect)): 180 nM | antibacterial activity (S. pneumoniae; erythromycin A sensitive strains of S. pneumoniae, in words): low antibacterial activity | tachyphylaxis effect (FIG. 1) (rabbit duodenum strips; contractile responses at 0, 30, 60, 90 min, in words): distinctly less pronounced than that of ABT 229 | % of the initial contraction after the fourth dose (rabbit duodenum strips): 39±13%

SMILES: CCC(C)N(C)[C@H]1C[C@@H](C)O[C@@H](O[C@@H]2[C@@H](C)[C@H](O[C@H]3C[C@@](C)(OC)[C@@H](O)[C@H](C)O3)[C@@H](C)C(=O)O[C@H](CC)[C@@](C)(O)[C@H](O)[C@@H](C)C[C@H](C)CC2(C)O)[C@@H]1O (some centres unmarked) [Compound I-c, N-Desmethyl-N-sec-butyl-9-desoxoerythromycin A]
inhibition at 10 µM (hERG potassium channel): 26.5% | inhibition at 30 µM (hERG potassium channel): 70.3%

SMILES: CC[C@H]1OC(=O)[C@H](C)[C@@H](O[C@H]2C[C@@](C)(OC)[C@@H](O)[C@H](C)O2)[C@H](C)[C@@H](O[C@@H]2O[C@H](C)C[C@H](N(C)CC(C)C)[C@H]2O)C(C)(O)C[C@@H](C)C[C@H](C)[C@@H](O)[C@]1(C)O (some centres unmarked) [Compound I-d, N-Desmethyl-N-isobutyl-9-desoxoerythromycin A]
inhibition at 10 µM (hERG potassium channel): 33.1% | inhibition at 30 µM (hERG potassium channel): 71.4%

SMILES: CCC1OC(=O)C(C)C(OC2CC(C)(OC)C(O)C(C)O2)C(C)C(OC2OC(C)CC(N(C)CCO)C2O)C(C)(O)CC(C)CC(C)C(O)C1(C)O (centres unmarked) [Compound I-e, N-Desmethyl-N-(2-hydroxyethyl)-9-desoxoerythromycin A]
Inhibition (%) at Specified Compound Concentration ([3]; 10 µM): 57.1% | Inhibition (%) at Specified Compound Concentration ([3]; 30 µM): 84.3% | % of the initial contraction after the fourth dose (rabbit duodenum strips): 85±11%

SMILES: CC[C@H]1OC(=O)[C@H](C)[C@@H](O[C@H]2C[C@@](C)(OC)[C@@H](O)[C@H](C)O2)[C@H](C)[C@@H](O[C@@H]2O[C@H](C)C[C@H](N(C)C)[C@H]2O)[C@](C)(O)C[C@@H](C)C(=O)[C@H](C)[C@@H](O)[C@]1(C)O [Erythromycin A, reference compound]
MIC (S. pneumoniae; ATCC6301, read-out: Minimum Inhibitory Concentration (MIC)): 0.025 µg/mL (≈ 0.0341 µM) | MIC (S. pneumoniae; ATCC49619, read-out: Minimum Inhibitory Concentration (MIC)): 0.049 µg/mL (≈ 0.0668 µM) | MIC (S. pneumoniae; ATCC700671, read-out: Minimum Inhibitory Concentration (MIC)): 0.049 µg/mL (≈ 0.0668 µM)
